The text below walks through data of paper PMC12000418, “Ubiquitin is directly linked via an ester to protein-conjugated mono-ADP-ribose” (The EMBO Journal, 2025).

One assay deals with T1, PARP10 (Homo sapiens, UniProt Q53GL7).
T1 construct: GFP-PARP10, doxycycline-inducible in HEK 293 cells
T1 sequence (Q53GL7 1-1025): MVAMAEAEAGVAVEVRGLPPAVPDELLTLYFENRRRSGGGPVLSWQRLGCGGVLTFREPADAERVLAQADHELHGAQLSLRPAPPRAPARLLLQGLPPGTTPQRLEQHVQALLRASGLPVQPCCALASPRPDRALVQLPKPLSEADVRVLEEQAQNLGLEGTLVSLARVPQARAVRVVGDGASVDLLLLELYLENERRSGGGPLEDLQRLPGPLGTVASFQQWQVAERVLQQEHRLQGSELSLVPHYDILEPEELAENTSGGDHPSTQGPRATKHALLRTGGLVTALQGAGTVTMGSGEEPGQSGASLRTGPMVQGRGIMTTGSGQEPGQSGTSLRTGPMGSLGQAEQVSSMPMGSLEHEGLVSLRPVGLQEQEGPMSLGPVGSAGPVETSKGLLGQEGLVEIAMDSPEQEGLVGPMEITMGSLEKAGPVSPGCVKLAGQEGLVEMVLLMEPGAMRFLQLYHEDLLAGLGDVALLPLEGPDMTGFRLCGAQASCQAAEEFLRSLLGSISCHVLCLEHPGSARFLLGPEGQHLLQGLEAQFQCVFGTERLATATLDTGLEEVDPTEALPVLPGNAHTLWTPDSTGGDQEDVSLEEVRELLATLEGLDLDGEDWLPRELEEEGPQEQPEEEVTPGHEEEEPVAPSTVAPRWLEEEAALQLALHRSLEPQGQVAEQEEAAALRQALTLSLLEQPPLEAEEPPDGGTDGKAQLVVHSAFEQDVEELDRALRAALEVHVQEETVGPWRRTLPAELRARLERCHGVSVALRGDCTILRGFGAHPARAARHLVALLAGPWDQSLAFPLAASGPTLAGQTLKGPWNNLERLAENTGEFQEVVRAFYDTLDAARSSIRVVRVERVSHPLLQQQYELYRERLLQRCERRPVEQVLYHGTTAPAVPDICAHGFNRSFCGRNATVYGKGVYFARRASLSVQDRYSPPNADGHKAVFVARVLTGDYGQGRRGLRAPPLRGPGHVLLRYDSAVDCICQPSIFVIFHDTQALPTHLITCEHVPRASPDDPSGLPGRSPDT
Nature of the assay: Dose-response inhibition of GFP-PARP10 auto-MARylation in HEK […] cells, western blot. It counts as cell-based. (In general: A western blot detects proteins with antibodies after separation by electrophoresis.)

For another assay, the target named is T2, DTX2 (Homo sapiens, UniProt Q86UW9).
T2 construct: RING-DTC domain, residues 389–622; with UBE2D3~Ub conjugate
T2 sequence (Q86UW9 389-622): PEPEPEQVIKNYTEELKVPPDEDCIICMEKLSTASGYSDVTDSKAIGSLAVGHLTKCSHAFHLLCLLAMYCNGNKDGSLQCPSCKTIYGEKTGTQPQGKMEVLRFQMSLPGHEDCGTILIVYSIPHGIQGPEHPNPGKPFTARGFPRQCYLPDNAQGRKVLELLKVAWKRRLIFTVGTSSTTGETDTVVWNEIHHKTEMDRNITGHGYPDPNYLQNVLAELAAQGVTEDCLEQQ
T2 sequence (P61077 whole entry partner, the tested form may be a part): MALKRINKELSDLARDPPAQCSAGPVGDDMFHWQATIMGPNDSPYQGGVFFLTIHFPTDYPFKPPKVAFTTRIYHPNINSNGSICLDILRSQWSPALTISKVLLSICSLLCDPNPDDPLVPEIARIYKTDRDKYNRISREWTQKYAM
Nature of the assay: In vitro ubiquitylation of NAD+ ([…]) by purified DTX2 and E2~Ub, silver-stained gel. Type of assay: biochemical.

RBN010860 showed an IC50 at PARP10 of 51.4 nM. Regarding `NC(=O)c1ccc[n+]([C@@H]2O[C@H](COP(=O)([O-])OP(=O)(O)OC[C@H]3O[C@@H](n4cnc5c(N)ncnc54)[C@H](O)[C@@H]3O)[C@@H](O)[C@H]2O)c1` [NAD^+], the “In vitro ubiquitylation of NAD+ (0.2 mM) by purified DTX2 and E2~Ub, silver-stai” value at DTX2 is “DTX2 could readily conjugate Ub to NAD^+ and ADPr to form Ub ester-linked NAD^+ (NAD^+-Ube)”.

The IC50 is the concentration that inhibits the measured activity by half. Lower therefore signals higher potency.
